For the assay, the target named is T1, Vitamin D Receptor (VDR) (Bos taurus, UniProt Q28037).
T1 construct: Bovine thymus 1α,25-dihydroxyvitamin D3 receptor was purchased; purchased YAMASA SHOYU KABUSHIKI KAISHA lot.110431; host or cells: bovine thymus (tissue preparation)
T1 sequence (Q28037 1-426): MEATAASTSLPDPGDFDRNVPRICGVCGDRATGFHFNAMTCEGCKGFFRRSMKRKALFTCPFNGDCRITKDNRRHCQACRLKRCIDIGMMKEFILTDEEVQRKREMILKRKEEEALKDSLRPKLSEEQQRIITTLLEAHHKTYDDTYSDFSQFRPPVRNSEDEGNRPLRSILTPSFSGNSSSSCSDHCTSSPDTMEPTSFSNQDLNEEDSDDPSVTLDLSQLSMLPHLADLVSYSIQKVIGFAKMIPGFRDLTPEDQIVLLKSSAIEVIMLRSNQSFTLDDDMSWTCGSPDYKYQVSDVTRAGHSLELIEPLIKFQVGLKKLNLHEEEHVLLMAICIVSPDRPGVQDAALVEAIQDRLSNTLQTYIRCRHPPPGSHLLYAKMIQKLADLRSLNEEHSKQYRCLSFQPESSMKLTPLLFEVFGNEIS
The assay is described as follows: Assay for binding to vitamin D receptor (VDR), displacement of [3H]-1α,25-dihydroxyvitamin D3. The following applies: relative value with that of 1α,25-dihydroxyvitamin D3 taken as 100; bovine thymus receptor; [3H]-1α,25-dihydroxyvitamin D3 0.1 nM; overnight at 4° C. How it is done: Assay for Binding to Vitamin D Receptor (VDR)
Bovine thymus 1α,25-dihydroxyvitamin D3 receptor was purchased from YAMASA SHOYU KABUSHIKI KAISHA (lot.110431) and 1 ampule (approximately 25 mg) of the receptor was dissolved in 55 mL of 0.05 M phosphate 0.5M potassium buffer (pH 7.4) just before use. Ethanol solutions (50 μl) of 1α,25-dihydroxyvitamin D3 and Compounds 31-35 of the present invention at various concentrations were prepared, mixed with aliquots (500 μl, 0.23 mg protein) of the receptor solution and pre-incubated at room temperature for 1 hour. To the resultant mixtures, [^3H]-1α,25-dihydroxyvitamin D3 was added at the final concentration of 0.1 nM, followed by incubation overnight at 4° C.
The reaction mixtures were treated with dextran coated charcoal for 30 minutes at 4° C. to separate the bound and free forms of [^3H]-1α,25-dihydroxyvitamin D3, and centrifuged at 3000 rpm for ten minutes. Each of the resultant supernatants (500 μl) was mixed with ACS-II (9.5 ml) (AMERSHAM, England) for radioactivity measurement.
The binding properties of Compounds 31-35 of the present invention were expressed in relative values with that of 1α,25-dihydroxyvitamin D3 taken as 100.
Molecule `C=C1C(=CC=C2CCCC3(C)C2CCC3C(C)CCCC(C)(C)O)CC(O)C(CCO)C1O` [Compound 32, (5Z,7E)-(1S,2S,3R,20R)-9,10-seco-5,7,10(19)-cholestatriene-2-(2′-hydroxyethyl)-1,3,25-triol] yielded a Binding property of 70.

Turning to `C=C1/C(=C\C=C2/CCC[C@]3(C)[C@@H]([C@H](C)CCCC(C)(C)O)CC[C@@H]23)C[C@@H](O)[C@H](CC)[C@@H]1O` [Compound 34, (5Z,7E)-(1S,2S,3R,20R)-9,10-seco-5,7,10(19)-cholestatriene-2-ethyl-1,3,25-triol], the Binding property is given as 40.

The molecule `C=C1C(=CC=C2CCCC3(C)C2CCC3C(C)CCCC(C)(C)O)CC(O)C(CCC)C1O` [Compound 35, (5Z,7E)-(1S,2S,3R,20R)-9,10-seco-5,7,10(19)-cholestatriene-2-propyl-1,3,25-triol] registered a Binding property of 20.

Take “(5Z,7E)-(1S,2S,3R,20R)-9,10-seco-5,7,10(19)-cholestatriene-2-(3′-hydroxypropyl)-1,3,25-triol [Compound 33]”: the Binding property worked out at 300.

On to “(5Z,7E)-(1S,2S,3R,20R)-9,10-seco-5,7,10(19)-cholestatriene-2-hydroxymethyl-1,3,25-triol [Compound 31]”, for which the Binding property was 20.

(Values after patent publication US20050113349A1, “2-Alpha vitamin D derivatives having substituents” (Hiroaki TAKAYAMA, priority 1999, published 2005).)
